Test results from patent US20100227869A1, “ENANTIOPURE QUINUCLIDINYLOXY PYRIDAZINES AND THEIR USE AS NICOTINIC ACETYLCHOLINE RECEPTOR LIGANDS” (priority 2006, published 2010).

SMILES | melting point [°C]
C(#Cc1ccc(O[C@H]2CN3CCC2CC3)nn1)c1ccccc1.O=C(O)/C=C/C(=O)O | 151.3 to 157.3
C(#Cc1ccc(O[C@@H]2CN3CCC2CC3)nn1)c1ccccc1.O=C(O)/C=C/C(=O)O | 154.5 to 159.4
